Test results: PubChem BioAssay AID2060335 (Molecular Pharmacology Branch, DTP, NCI, 2025)

System: DU-145 multicell spheroids with HUVEC/MSC, viability
Test: Anticancer human tumor DU-145 cell line growth inhibition [IpAb];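 also: spheroids exposed to agents for seven days before measurement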;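 as to viability, T/C: percent of DMSO vehicle control viability so 100% = untreated level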
Conditions: for IC50: curve of first compound; for viability, T/C: stronger effect = lower value
From the text: Combinatorial screen of targeted agents with ipatasertib and abemaciclib in multi-cell type tumor spheroids
A high-throughput screen of multi-cell type tumor spheroids was designed to identify active combinations of targeted small molecules and ipatasertib or abemaciclib. Complex spheroids include a stromal component modeled by human endothelial cells (HUVEC) and fibroblasts modeled by human mesenchymal stem cells (MSCs). The concentration ranges selected for each drug and investigational agent were based upon clinically achievable concentrations if the clinical Cmax of the agent was known.
Compounds. The drugs and investigational agents: ipatasertib (NSC767898), abemaciclib(NSC768073), selumetinib (NSC741078), trametinib (758246), adavosertib (NSC754352), everolimus (NSC733504), sapanisertib (NSC764658), vemurafenib (NSC761431), venetoclax (NSC766270), copanlisib (NSC809693), apelisib (NSC765974), palbociblib (NSC758247), vemurafenib (NSC761431), dabrafenib (NSC764134), ravoxertinib (NSC781343), BMS-387032 (NSC767048), sotorasib (NSC818433), talazoparib (NSC767125) and afursertib (NSC778305), were obtained from the National Cancer Institute (NCI) Developmental Therapeutics Program Chemical Repository. The FDA-approved anticancer drug set is available from the NCI Developmental Therapeutics Program. […] The stock solutions were prepared in dimethyl sulfoxide (DMSO, Sigma-Aldrich, St. Louis, MO, cat. D2650) at 800-fold the tested concentration and stored at -70 degrees C prior to their use. All drugs and investigational agents were tested over a range starting from a high concentration at or near the clinical Cmax and decreasing in half-log increments. If the clinical Cmax for an agent had not been determined, the highest concentration tested was 10 microM.
NCI60 Cell Culture. NCI60 cell lines were obtained from the NCI Developmental Therapeutics Program Tumor Repository. For each lot of cells, the Repository performed Applied Biosystems AmpFLSTR Identifiler testing with PCR amplification to confirm consistency with the published Identifier STR profile for each cell line. Cells were kept in continuous culture for no more than 20 passages. The optimal seeding densities for each of the cell lines at each time point assessed were determined prior to performing the concentration response studies. Briefly, the NCI60 human tumor lines were grown as monolayers in RPMI 1640 medium supplemented with 10% FBS and 2 mmol/L L-glutamine.
An additional 9 lines were from the NCI60 cell line panel including MDA-MB-231 breast carcinoma, MDA-MB-468 breast carcinoma, MCF7 breast carcinoma, Hs578T breast carcinoma, MALME-3M melanoma, SK-MEL-2 melanoma, SK-OV-3 ovarian carcinoma, DU-145 prostate carcinoma, PC-3 prostate carcinoma, all cell lines along with major genetic alterations are listed on Table 2. Pooled donor human umbilical vein endothelial cells (HUVEC, Lonza, cat. CC-2519) and human mesenchymal stem cells (hMSC, Lonza, cat. PT-2501) were purchased from Lonza (Walkersville, MD).
PDMR cell lines were grown in complete medium (DC medium): Dulbecco's modified Eagle's medium (DMEM)/F12 supplemented with 5% fetal bovine serum (FBS), 2 mM L-glutamine, 100 U/mL penicillin and 100 µg/ml streptomycin, 0.4 µg/ml hydrocortisone, 10 ng/ml epidermal growth factor (EGF) recombinant human protein, 24 µg/mL adenine, and 0.1 mg/mL primocin. During culture from frozen stock vials, PDMR cells were cultured in the same medium containing 10 µM Y-27632 (see Table 3). The PDCs were cultured in complete DMEM/F12 media without 10 microM Y-27632 dihydrochloride for at least two passages prior to the screen. The pooled donor HUVEC and hMSC were cultured in endothelial cell growth medium 2 (PromoCell, Heidelberg, Germany, cat. C-22011) and mesenchymal stem cell growth medium 2 (PromoCell, cat. C-28009), respectively. For all experiments, HUVEC and hMSC were used at passages </=5.
[…]

[1] = second compound 0.1 µM, first compound 0.0316 µM
[2] = second compound 0.1 µM, first compound 0.1 µM
[3] = second compound 0.1 µM, first compound 0.316 µM
[4] = second compound 0.1 µM, first compound 1 µM
[5] = second compound 0.316 µM, first compound 0.0316 µM
[6] = second compound 0.316 µM, first compound 0.1 µM
[7] = second compound 0.316 µM, first compound 0.316 µM
[8] = second compound 0.316 µM, first compound 1 µM
[9] = second compound 1 µM, first compound 0.0316 µM
[10] = second compound 1 µM, first compound 0.1 µM
[11] = second compound 1 µM, first compound 0.316 µM
[12] = second compound 1 µM, first compound 1 µM
[13] = second compound 3.16 µM, first compound 0.0316 µM
[14] = second compound 3.16 µM, first compound 0.1 µM
[15] = second compound 3.16 µM, first compound 0.316 µM
[16] = second compound 3.16 µM, first compound 1 µM
[17] = second compound 10 µM, first compound 0.0316 µM
[18] = second compound 10 µM, first compound 0.1 µM
[19] = second compound 10 µM, first compound 0.316 µM
[20] = second compound 10 µM, first compound 1 µM

CC(=O)c1c(C)c2cnc(Nc3ccc(N4CCNCC4)cn3)nc2n(C2CCCC2)c1=O + CC(C)NCC(C(=O)N1CCN(c2ncnc3c2C(C)CC3O)CC1)c1ccc(Cl)cc1
IC50 (second compound 0.1 µM): > 300 nM
IC50 (second compound 0.316 µM): > 300 nM
IC50 (second compound 1 µM): < 0.949 nM
IC50 (second compound 3.16 µM): < 0.949 nM
IC50 (second compound 10 µM): < 0.949 nM
viability, T/C (second compound 0.1 µM, first compound 0.000949 µM): 85.3%
viability, T/C (second compound 0.1 µM, first compound 0.003 µM): 79.7%
viability, T/C (second compound 0.1 µM, first compound 0.00949 µM): 83.4%
viability, T/C (second compound 0.1 µM, first compound 0.03 µM): 89.2%
viability, T/C (second compound 0.1 µM, first compound 0.0949 µM): 81.8%
viability, T/C (second compound 0.1 µM, first compound 0.3 µM): 83.7%
viability, T/C (second compound 0.316 µM, first compound 0.000949 µM): 53%
viability, T/C (second compound 0.316 µM, first compound 0.003 µM): 52.1%
viability, T/C (second compound 0.316 µM, first compound 0.00949 µM): 52.2%
viability, T/C (second compound 0.316 µM, first compound 0.03 µM): 48.1%
viability, T/C (second compound 0.316 µM, first compound 0.0949 µM): 48.8%
viability, T/C (second compound 0.316 µM, first compound 0.3 µM): 54.7%
viability, T/C (second compound 1 µM, first compound 0.000949 µM): 29.3%
viability, T/C (second compound 1 µM, first compound 0.003 µM): 30.7%
viability, T/C (second compound 1 µM, first compound 0.00949 µM): 28.9%
viability, T/C (second compound 1 µM, first compound 0.03 µM): 28.7%
viability, T/C (second compound 1 µM, first compound 0.0949 µM): 28.6%
viability, T/C (second compound 1 µM, first compound 0.3 µM): 27.8%
viability, T/C (second compound 3.16 µM, first compound 0.000949 µM): 20.3%
viability, T/C (second compound 3.16 µM, first compound 0.003 µM): 19.7%
viability, T/C (second compound 3.16 µM, first compound 0.00949 µM): 19.2%
viability, T/C (second compound 3.16 µM, first compound 0.03 µM): 19.5%
viability, T/C (second compound 3.16 µM, first compound 0.0949 µM): 20.3%
viability, T/C (second compound 3.16 µM, first compound 0.3 µM): 19.9%
viability, T/C (second compound 10 µM, first compound 0.000949 µM): 16.8%
viability, T/C (second compound 10 µM, first compound 0.003 µM): 15.5%
viability, T/C (second compound 10 µM, first compound 0.00949 µM): 15.5%
viability, T/C (second compound 10 µM, first compound 0.03 µM): 17.2%
viability, T/C (second compound 10 µM, first compound 0.0949 µM): 15.6%
viability, T/C (second compound 10 µM, first compound 0.3 µM): 16.1%

COc1c(OCCCN2CCOCC2)ccc2c3n(c(=NC(=O)c4cnc(N)nc4)nc12)CCN3 + CC(C)NCC(C(=O)N1CCN(c2ncnc3c2C(C)CC3O)CC1)c1ccc(Cl)cc1
IC50 (second compound 0.1 µM): 6.79 nM
IC50 (second compound 0.316 µM): < 3.16 nM
IC50 (second compound 1 µM): < 3.16 nM
IC50 (second compound 3.16 µM): < 3.16 nM
IC50 (second compound 10 µM): < 3.16 nM
viability, T/C (second compound 0.1 µM, first compound 0.00316 µM): 65.3%
viability, T/C (second compound 0.1 µM, first compound 0.01 µM): 41.2%
viability, T/C [1]: 27.6%
viability, T/C [2]: 12.7%
viability, T/C [3]: 9.75%
viability, T/C [4]: 10.5%
viability, T/C (second compound 0.316 µM, first compound 0.00316 µM): 41.5%
viability, T/C (second compound 0.316 µM, first compound 0.01 µM): 28.2%
viability, T/C [5]: 18.8%
viability, T/C [6]: 11.6%
viability, T/C [7]: 9.1%
viability, T/C [8]: 11.2%
viability, T/C (second compound 1 µM, first compound 0.00316 µM): 25.4%
viability, T/C (second compound 1 µM, first compound 0.01 µM): 22%
viability, T/C [9]: 14.8%
viability, T/C [10]: 10%
viability, T/C [11]: 8.83%
viability, T/C [12]: 10.2%
viability, T/C (second compound 3.16 µM, first compound 0.00316 µM): 18.7%
viability, T/C (second compound 3.16 µM, first compound 0.01 µM): 14.6%
viability, T/C [13]: 12.1%
viability, T/C [14]: 9.46%
viability, T/C [15]: 8.26%
viability, T/C [16]: 9.07%
viability, T/C (second compound 10 µM, first compound 0.00316 µM): 14.6%
viability, T/C (second compound 10 µM, first compound 0.01 µM): 12.5%
viability, T/C [17]: 10.5%
viability, T/C [18]: 8.52%
viability, T/C [19]: 7.9%
viability, T/C [20]: 9.09%

Cc1nc(NC(=O)N2CCCC2C(N)=O)sc1-c1ccnc(C(C)(C)C(F)(F)F)c1 (stereo not given) + CC(C)NCC(C(=O)N1CCN(c2ncnc3c2C(C)CC3O)CC1)c1ccc(Cl)cc1
IC50 (second compound 0.1 µM): 94.7 nM
IC50 (second compound 0.316 µM): < 31.6 nM
IC50 (second compound 1 µM): < 31.6 nM
IC50 (second compound 3.16 µM): < 31.6 nM
IC50 (second compound 10 µM): < 31.6 nM
viability, T/C [1]: 65.7%
viability, T/C [2]: 49.2%
viability, T/C [3]: 32.1%
viability, T/C [4]: 27.9%
viability, T/C (second compound 0.1 µM, first compound 3.16 µM): 18.1%
viability, T/C (second compound 0.1 µM, first compound 10 µM): 7.81%
viability, T/C [5]: 40%
viability, T/C [6]: 35%
viability, T/C [7]: 26.2%
viability, T/C [8]: 22.4%
viability, T/C (second compound 0.316 µM, first compound 3.16 µM): 14.7%
viability, T/C (second compound 0.316 µM, first compound 10 µM): 6.56%
viability, T/C [9]: 27.1%
viability, T/C [10]: 24.3%
viability, T/C [11]: 20.5%
viability, T/C [12]: 17.1%
viability, T/C (second compound 1 µM, first compound 3.16 µM): 12.4%
viability, T/C (second compound 1 µM, first compound 10 µM): 5.68%
viability, T/C [13]: 18.3%
viability, T/C [14]: 18.5%
viability, T/C [15]: 14.1%
viability, T/C [16]: 14%
viability, T/C (second compound 3.16 µM, first compound 3.16 µM): 8.48%
viability, T/C (second compound 3.16 µM, first compound 10 µM): 5.66%
viability, T/C [17]: 14.9%
viability, T/C [18]: 13.5%
viability, T/C [19]: 11.8%
viability, T/C [20]: 9.73%
viability, T/C (second compound 10 µM, first compound 3.16 µM): 8.28%
viability, T/C (second compound 10 µM, first compound 10 µM): 5.36%
